Results: US9181188B2, “Aryl ureas as kinase inhibitors” (Bayer Healthcare LLC, priority 2002, dated 2015)

melting point: 232 to 234 °C
SMILES: CNC(=O)c1cc(Oc2ccc(NC(=O)Nc3ccc(Cl)c(C(F)(F)F)c3)cc2)cc[n+]1[O-] [Example 1, N-[4-chloro-3-(trifluoromethyl)phenyl]-N′-{4-[2-(N-methylcarbamoyl)-1-oxo-(4-pyridyloxy)]phenyl}urea]
